The results in this text go back to patent publication US20200323849A1, “COMBINATIONS OF HISTONE DEACETYLASE INHIBITORS AND IMMUNOMODULATORY DRUGS” (Acetylon Pharmaceuticals, Inc., priority 2013, published 2020).

SMILES strings stand for the structures.

For series [1], the system named is H929 myeloma cells. The series is described as follows: Cell cycle distribution by flow cytometry, propidium iodide (H929). The format is cell-based. Particulars: H929, 3 and 5 days; Compound A 2 μM, Lenalidomide 2 μM, Pomalidomide 1 μM. The protocol: (§1) H929 (FIGS. 10A & 10B) or MM.1s (FIGS. 10C & 10D) myeloma cells were exposed to drug for 3 (FIGS. 10A & 10C) and 5 (FIGS. 10B & 10D) days and cell cycle distribution was assessed by flow cytometry via incorporation of propidium iodide. The relative fraction of cells in each stage of the cell cycle (GO/G1, S, and G2/M) as well as the fraction of dead cells (Sub G1) was then estimated.
(A flow cytometer gives signals particle by particle.)

The test system of series [2] is acetylated tubulin (a marker of HDAC6 inhibition). The series is described as follows: Phase 1b PD: acetylated tubulin in PBMC. Format: in vivo, human. Particulars: at ≥80 mg Compound A.
Description: (§4) In Part A of the trial, patients were treated with escalating doses of oral Compound A in combination with a standard dose and schedule of lenalidomide and dexamethasone on days 1-5 and 8-12 of a 28 day cycle. For example, the patients in cohort 1 received 40 mg of Compound A, 15 mg of Compound E, and 40 mg of dexamethasone per day; the patients in cohort 2 received 40 mg of Compound A, 25 mg of Compound E, and 40 mg of dexamethasone per day; the patients in cohort 3 received 80 mg of Compound A, 25 mg of Compound E, and 40 mg of dexamethasone per day; the patients in cohort 4 received 160 mg of Compound A, 25 mg of Compound E, and 40 mg of dexamethasone per day; and the patients in cohort 5 received 240 mg of Compound A, 25 mg of Compound E, and 40 mg of dexamethasone per day. […] For example, the patients in cohort 6 received 160 mg of Compound A, 25 mg of Compound E, and 40 mg of dexamethasone per day; the patients in cohort 7 received 160 mg of Compound A, 25 mg of Compound E, and 40 mg of dexamethasone twice daily; and the patients in cohort 8 received 240 mg of Compound A, 25 mg of Compound E, and 40 mg of dexamethasone twice daily. Peripheral blood samples were obtained for PK and PD analysis at specified time points.
Series [3] concerns H929 myeloma cells. The series is described as follows: Apoptosis by flow cytometry, Annexin V / propidium iodide (H929). Format: cell-based. To be noted: H929, 5 and 7 days; Compound A 2 μM, Lenalidomide 2 μM, Pomalidomide 1 μM. The protocol:
(§2) H929 (FIGS. 11A & 11B) or MM.1s (FIGS. 11C & 11D) myeloma cells were exposed to drug for 5 (FIGS. 11A & 11C) and 7 (FIGS. 11B & 11D) days, and apoptosis was assessed by flow cytometry by measuring Annexin V binding and cellular permeability to propidium iodide. The relative fraction of cells that were live, in early apoptosis, in late apoptosis, or dead was then determined.

Series [4] in a line: Phase 1b clinical trial: PK in peripheral blood samples.
Description: as §4
The conditions of series [5]: human, in vivo.
Description: as §4
Series [6] has as its system MM.1s myeloma cells. Description: Cell cycle distribution by flow cytometry, propidium iodide (MM.1s). The format is cell-based. To be noted: 3 and 5 days, Compound A 2 μM, Lenalidomide 2 μM, Pomalidomide 1 μM. The protocol: as §1
The subject of series [7] is acetylated histones (a marker of class 1 HDAC inhibition). The series is described as follows: Phase 1b PD: acetylated histones in PBMC. The format is in vivo, human. To be noted: at ≥80 mg Compound A.
Description: as §4
In another series the test system is H929 cells. The series is described as follows: Immunoblot in H929 cells. The format is cell-based.
Series [8] is described as follows: Compound A monotherapy clinical trial (phase 1a).
Description: as §4
For series [9], the system named is MM.1s myeloma cells. The series is described as follows: Apoptosis by flow cytometry, Annexin V / propidium iodide (MM.1s). The format is cell-based. To be noted: 5 and 7 days, Compound A 2 μM, Lenalidomide 2 μM, Pomalidomide 1 μM. The protocol: as §2
The test system of another series is HDAC1, 2, and 3. Description: HDAC enzyme assays (HDAC1, 2, 3). The format is biochemical. The protocol: (§3) Compounds for testing were diluted in DMSO to 50 fold the final concentration and a ten point three fold dilution series was made. The compounds were diluted in assay buffer (50 mM HEPES, pH 7.4, 100 mM KCl, 0.001% Tween-20, 0.05% BSA, 20 μM TCEP) to 6 fold their final concentration. The HDAC enzymes (purchased from BPS Biosciences) were diluted to 1.5 fold their final concentration in assay buffer. The tripeptide substrate and trypsin at 0.05 μM final concentration were diluted in assay buffer at 6 fold their final concentration. The final enzyme concentrations used in these assays were 3.3 ng/ml (HDAC1), 0.2 ng/ml (HDAC2), 0.08 ng/ml (HDAC3) and 2 ng/ml (HDAC6). The final substrate concentrations used were 16 μM (HDAC1), 10 μM (HDAC2), 17 μM (HDAC3) and 14 μM (HDAC6). Five μl of compound and 20 μl of enzyme were added to wells of a black, opaque 384 well plate in duplicate. Enzyme and compound were incubated together at room temperature for 10 minutes. Five μl of substrate was added to each well, the plate was shaken for 60 seconds and placed into a Victor 2 microtiter plate reader. The development of fluorescence was monitored for 60 min and the linear rate of the reaction was calculated. The IC50 was determined using Graph Pad Prism by a four parameter curve fit.

Another series addresses T1, HDAC6 (Homo sapiens, UniProt Q9UBN7).
T1 construct: purchased BPS Biosciences
T1 sequence (Q9UBN7 1-1215): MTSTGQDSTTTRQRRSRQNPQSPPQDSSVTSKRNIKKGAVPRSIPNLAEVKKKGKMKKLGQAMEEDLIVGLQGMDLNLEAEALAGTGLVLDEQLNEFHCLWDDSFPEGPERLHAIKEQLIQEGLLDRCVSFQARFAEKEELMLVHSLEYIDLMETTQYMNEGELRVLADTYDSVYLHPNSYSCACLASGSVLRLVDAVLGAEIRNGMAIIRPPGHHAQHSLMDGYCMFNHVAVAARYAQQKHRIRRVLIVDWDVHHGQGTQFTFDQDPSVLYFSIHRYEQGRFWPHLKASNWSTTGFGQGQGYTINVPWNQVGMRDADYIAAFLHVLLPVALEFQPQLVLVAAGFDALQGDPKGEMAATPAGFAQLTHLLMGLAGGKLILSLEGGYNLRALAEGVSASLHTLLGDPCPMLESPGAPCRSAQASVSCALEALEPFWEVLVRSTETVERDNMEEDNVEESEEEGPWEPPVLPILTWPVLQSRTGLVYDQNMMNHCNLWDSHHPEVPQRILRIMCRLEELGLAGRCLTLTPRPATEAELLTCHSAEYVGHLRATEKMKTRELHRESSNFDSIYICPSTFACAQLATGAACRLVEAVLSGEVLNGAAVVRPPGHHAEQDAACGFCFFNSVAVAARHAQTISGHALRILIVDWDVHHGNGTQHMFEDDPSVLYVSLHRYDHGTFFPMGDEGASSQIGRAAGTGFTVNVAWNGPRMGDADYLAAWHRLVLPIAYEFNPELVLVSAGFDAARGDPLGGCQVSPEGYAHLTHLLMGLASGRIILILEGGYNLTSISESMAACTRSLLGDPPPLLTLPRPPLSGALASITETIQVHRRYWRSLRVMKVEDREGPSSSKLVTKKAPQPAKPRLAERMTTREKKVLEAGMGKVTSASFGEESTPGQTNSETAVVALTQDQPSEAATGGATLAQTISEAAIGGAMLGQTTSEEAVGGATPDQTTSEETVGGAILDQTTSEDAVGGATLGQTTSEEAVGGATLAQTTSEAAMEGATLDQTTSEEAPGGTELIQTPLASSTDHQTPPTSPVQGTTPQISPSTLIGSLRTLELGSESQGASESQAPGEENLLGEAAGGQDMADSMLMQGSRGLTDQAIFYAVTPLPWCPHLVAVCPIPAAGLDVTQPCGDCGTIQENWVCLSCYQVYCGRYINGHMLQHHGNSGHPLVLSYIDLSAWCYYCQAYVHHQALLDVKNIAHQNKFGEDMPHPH
The series is described as follows: HDAC enzyme assays (HDAC6 selectivity). Format: biochemical. Here is the method: as §3, with “Five μl of compound and 20 μl of enzyme were added to wells of a black, opaque 384 well plate in duplicate.” left out

As for `O=C(CCCCCCNC(=O)c1cnc(N(c2ccccc2)c2ccccc2)nc1)NO` [Compound A, 2-(diphenylamino)-N-(7-(hydroxyamino)-7-oxoheptyl) pyrimidine-5-carboxamide], the “cell cycle distribution (G0/G1, S, G2/M)” value in the series on H929 myeloma cells [1] and in the series on MM.1s myeloma cells [6] was “small reduction” each time. The “increase in acetylated tubulin” value in series [2] is reported as above 2 ×. The “percentage of apoptotic cells” value in the series on H929 myeloma cells [3] and in the series with MM.1s myeloma cells [9] was “small increase in apoptosis” throughout. Further, the “Maximal levels of Compound A” value in series [4] (at ≥80 mg, coadministered with lenalidomide and dexamethasone) was at least 1 µM. The “PK for Compound A versus analogous dose levels in phase 1a monotherapy” value in [4] (coadministration of lenalidomide) is listed as “similar”. Also, the “dose limiting toxicities (DLTs)” value in [5] is “not observed”. Besides, the “increase in acetylated histones” value in series [7] is recorded as “minimal increase”. In the series on H929 cells, the “acetylation of α-tubulin (inhibition of HDAC6)” value is listed as “hyperacetylation”. Further, the “dose well-tolerated as a monotherapy (maximum dose examined)” value in [8] was “up to 360 mg/day”.

Consider `O=C(CCCCCCNC(=O)c1cnc(N(c2ccccc2)c2ccccc2Cl)nc1)NO` [Compound B, 2-((2-chlorophenyl)(phenyl)amino)-N-(7-(hydroxyamino)-7-oxoheptyl)pyrimidine-5-carboxamide], for which, in the series on HDAC1, 2, and 3, the “inhibition of HDAC1, 2, and 3” value was “low level inhibition”.

`O=C(NO)c1cnc(NC2(c3cccc(F)c3)CCCCC2)nc1` [Compound C, 2-((1-(3-fluorophenyl)cyclohexyl)amino)-N-hydroxypyrimidine-5-carboxamide]: the “selective for HDAC6 over class I HDAC's” value on HDAC6 is reported as “more than 300 fold”.
